Experimental data taken from patent US20210380595A1 (ARAXES PHARMA LLC, priority 2018, published 2021).

Biological target: T1, KRAS G12C 1-169, his-tagged protein, GDP-loaded (Homo sapiens, UniProt P01116, G12C)
T1 construct: KRAS G12C 1-169, his-tagged protein, GDP-loaded
Assay: Biochemical assay: covalent modification of KRAS G12C measured by mass spectrometry (RapidFire/TOF or Q-Exactive)
Type: binding
Procedure: Test compounds were prepared as 10 mM stock solutions in DMSO (Fisher cat. #BP-231-100). KRAS G12C 1-169, his-tagged protein, GDP-loaded is diluted to 2 μM or 0.5 μM in buffer (20 mM Hepes, 150 mM NaCl, 1 mM MgCl2). Compounds were tested for activity as follows:
Compounds were diluted to 50× final test concentration in DMSO in 96-well storage plates. Compound stock solutions were vortexed before use and observed cwerefully for any sign of precipitation. Dilutions were as follow: • For 32 μM final compound concentration, compounds were diluted to 1600 μM (3 μL 10 mM compound stock +15.75 μL DMSO and mixed well by pipetting. • For 8 μM final compound concentration, compounds were diluted to 400 μM (2 μL 10 mM compound stock +48 μL DMSO) and mixed well by pipetting. 49 μL of the stock protein solution was added to each well of a 96-well PCR plate (Fisher cat#1423027). 1 μl of the diluted 50× compounds were added to appropriate wells in the PCR plate using 12-channel pipettor. Reactions were mixed carefully and thoroughly by pipetting up/down with a 200 μL multi-channel pipettor. The plate was sealed well with aluminum plate seal, and protein and compound were allowed to react for a desired amount of time. 5 μL of 2% formic acid (Fisher cat#A117) in de-ionized H2O was then added to each well followed by mixing with a pipette to quench the reaction. The plate was then resealed with aluminum seal and stored frozen on dry ice until analyzed as described below.
The above described assays were analyzed by mass spectrometry according to one of the following two procedures:
The MS instrument was set to positive polarity, 2 GHz resolution, and low mass (1700) mode and allowed to equilibrate for 30 minutes. The instrument was then calibrated, switched to acquisition mode and the appropriate method loaded.
After another 30 minute equilibration time, a blank batch (i.e., buffer) was run to ensure equipment is operating properly. The samples were thawed at 37° C. for 10 minutes, briefly centrifuged, and transfered to the bench top. Wells A1 and H12 were spiked with 1 μL 500 μM internal standard peptide, and the plates centrifuged at 2000×g for 5 minutes. The method was then run and masses of each individual well recorded.
The masses (for which integration data is desired) for each well were pasted into the platemap and exported from the analysis. Masses for the internal standards were exported as well. The data at 50 ppm was extracted for the +19 charge state, and identity of well A1 was assigned using the internal standard spike and integrated. Peak data was exported as a TOF list and the above steps were repeated individually, for the +20, +21, +22, +23, +24, and +25 charge states.
The masses and peak intensities of KRAS G12C protein species were measured using a Dionex RSLCnano system (Thermo Scientific) connected to a Q Exactive Plus mass spectrometer (Thermo Scientific).
20 μL of sample was loaded onto a Aeris™ 3.6 μm WIDEPORE C4 200 Å, LC Column 50×2.1 mm column maintained at 40° C. at a flow rate of 600 μL/min with 80% Solvent A (0.1% formic acid in H2O) and 20% Solvent B (0.1% formic acid in acetonitrile). The liquid chromatography conditions were 20% solvent B for 1 minute, 20% to 60% solvent B for 1.5 minutes, 60% to 90% solvent for 0.5 minute, 90% solvent B for 0.2 minute, 90% to 20% solvent B for 0.2 minute, and then equilibrated for 1.6 minute before the following sample injection. The flow rate was maintained at 600 μL/min throughout the sample analysis.
The mass spectrometer was operated in profile mode at a resolution of 17500, 5 microscans, using 50 msec max injection time and an AGC target of 1×10^6, and a full mass range from 800-1850 m/z was recorded. The intact protein mode was applied for optimal ion transfer and maximum sensitivity. The ionization method was electrospray ionization, which used a spray voltage of 4 kV, sheath gas flow set to 50 AU, auxiliary gas flow set to 10 AU and sweep gas flow set to 1 AU. […]

[1] = tested at a concentration of 8 μM

C=CC(=O)N1CC2(CCN(c3cc(N4CCOCC4)c(OC)c(-c4c(C)ccc5[nH]ncc45)c3C#N)CC2)C1 [Compound I-84, 6-(2-acryloyl-2,7-diazaspiro[3.5]nonan-7-yl)-3-methoxy-2-(5-methyl-1H-indazol-4-yl)-4-morpholino-benzonitrile]
Bind % (tested at 32 μM): + (+ indicates binding activity greater than 0% and up to 50%)

C=CC(=O)N1CC2(CCN(c3cc(N4CCOCC4)c(F)c(-c4c(C)ccc5[nH]ncc45)c3C#N)CC2)C1 [Compound I-80, 6-(2-acryloyl-2,7-diazaspiro[3.5]nonan-7-yl)-3-fluoro-2-(5-methyl-1H-indazol-4-yl)-4-morpholino-benzonitrile]
Bind % [1]: + (+ indicates binding activity greater than 0% and up to 50%)

Cc1ccc2[nH]ncc2c1-c1cc(N2CCOCC2)cc(N2CCC3(CN(C(=O)/C=C/CN(C)C)C3)C2)c1C#N [Compound I-34, (E)-2-(2-(4-(dimethylamino)but-2-enoyl)-2,6-diazaspiro[3.4]octan-6-yl)-6-(5-methyl-1H-indazol-4-yl)-4-morpholino-benzonitrile]
Bind % [1]: + (+ indicates binding activity greater than 0% and up to 50%)

C=CC(=O)N1CC2(CCN(c3cc(OCc4ccccn4)c(Cl)c(-c4c(C)ccc5[nH]ncc45)c3C#N)CC2)C1 [Compound I-122, 6-(2-acryloyl-2,7-diazaspiro[3.5]nonan-7-yl)-3-chloro-2-(5-methyl-1H-indazol-4-yl)-4-(pyridin-2-ylmethoxy) benzonitrile]
Bind % (tested at 32 μM): ++ (++ indicates binding activity from 50 to 75%)

C=CC(=O)N1CC2(CCN(c3cc(N4CCC(N5CCN(C)CC5)CC4)cc(-c4c(C)ccc5[nH]ncc45)c3C#N)C2)C1 [Compound I-39, 2-(2-acryloyl-2,6-diazaspiro[3.4]octan-6-yl)-6-(5-methyl-1H-indazol-4-yl)-4-(4-(4-methylpiperazin-1-yl)piperidin-1-yl)benzonitrile]
Bind % [1]: +++ (+++ indicates binding activity greater than 75%)

C=CC(=O)N1CC2(CCN(c3cc(N4CCCC(O)C4)cc(-c4c(C)ccc5[nH]ncc45)c3C#N)C2)C1 (stereo not shown) [Compound I-31, 2-(2-acryloyl-2,6-diazaspiro[3.4]octan-6-yl)-4-(3-hydroxypiperidin-1-yl)-6-(5-methyl-1H-indazol-4-yl)benzonitrile]
Bind % [1]: +++ (+++ indicates binding activity greater than 75%)

C=CC(=O)N1CC2(CCN(c3ccc(F)c(-c4c(C)ccc5cnn(C)c45)c3C#N)C2)C1 (atropisomer, axis not shown) [Compound I-44, (S)-6-(2-acryloyl-2,6-diazaspiro[3.4]octan-6-yl)-2-(1,6-dimethyl-1H-indazol-7-yl)-3-fluorobenzo-nitrile]
Bind % [1]: +++ (+++ indicates binding activity greater than 75%)

CC#CC(=O)N1CC2(CCN(c3cccc(-c4c(C)ccc5cnn(C)c45)c3C#N)C2)C1 [Compound I-12, 2-(2-(but-2-ynoyl)-2,6-diazaspiro[3.4]octan-6-yl)-6-(1,6-dimethyl-1H-indazol-7-yl)benzonitrile]
Bind % (tested at 32 μM): + (+ indicates binding activity greater than 0% and up to 50%)

Cc1ccc2[nH]ncc2c1-c1cc(N2CCCC(O)C2)cc(N2CCC3(CN(C(=O)/C=C/CN(C)C)C3)C2)c1C#N (stereo not shown) [Compound I-70, (E)-2-(2-(4-(dimethylamino)but-2-enoyl)-2,6-diazaspiro[3.4]octan-6-yl)-4-(3-hydroxypiperidin-1-yl)-6-(5-methyl-1H-indazol-4-yl)benzonitrile]
Bind % (tested at 32 μM): ++ (++ indicates binding activity from 50 to 75%)

C=CC(=O)N1CC2(CCN(c3cc(OCc4ccccn4)cc(-c4c(C)ccc5[nH]ncc45)c3)CC2)C1 [Compound I-107, 1-(7-(3-(5-methyl-1H-indazol-4-yl)-5-(pyridin-2-ylmethoxy)phenyl)-2,7-diazaspiro[3.5]nonan-2-yl)prop-2-en-1-one]
Bind % (tested at 32 μM): + (+ indicates binding activity greater than 0% and up to 50%)
